The source of these data is patent publication US4962109A, “Insecticidally and acaricidally active pyrimidine esters and intermediates therefor” (Imperial Chemical Industries PLC, priority 1985, dated 1990).

Common to all, as to type: in vivo
In assay [1] the test system is Tetranychus urticae (spider mites - adult). Briefly: Contact test on spider mites - adult (TUa), French bean leaf, mortality. As to conditions: 72 h, 500 ppm, contact, 3 days, read-out: TUa grading of mortality. The gist of the method:
(§1)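 Product dissolved in acetone, diluted in water with 0.01% wetting agent to 500, 250 or 100 ppm; pests and/or host medium (plant or foodstuff) treated. Mortality or knockdown assessed 1–3 days later, graded A (80–100%), B (50–79%) or C (<50%).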

Assay [2] deals with Tetranychus urticae (spider mites - ova). In words: Contact test on spider mites - ova (TUe), French bean leaf, mortality. To be noted: 144 h, 500 ppm, contact, 6 days, read-out: TUe grading of mortality. In a few lines:
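Graded read-out: A 80-100%, B 50-79%, C below 50% mortality or knockdown, assessed usually 1-3 days post-treatment. Liquid preparations at 500, 250 or 100 ppm by weight, from acetone solution diluted in water with 0.01% wetting agent, applied to pests and/or their host plant or food medium.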

In assay [3] the test system is Myzus persicae (aphids). Briefly: Contact test on aphids (MP), Chinese Cabbage leaf, mortality. To be noted: 72 h, 500 ppm, contact, 3 days, read-out: MP grading of mortality. In a few lines: as §1
Assay [4] relates to Nephotettix cincticeps (green leaf hopper - nymphs). In words: Contact test on green leaf hopper nymphs (NC), Rice plant, mortality. As to conditions: 48 h, 500 ppm, contact, 2 days, read-out: NC grading of mortality. The gist of the method:
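Product dissolved in acetone, diluted in water with 0.01% wetting agent to 500, 250 or 100 ppm; nymphs and/or host rice plants treated. Mortality or knockdown assessed 1–3 days later, graded A (80-100%), B (50-79%), C (<50%).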

Assay [5] deals with Musca domestica (houseflies - adults). Briefly: Knockdown test on houseflies - adults (MD/KD), Cotton wool/sugar. To be noted: 500 ppm, 4 hours, read-out: MD/KD grading of knockdown. In a few lines: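 Adult houseflies exposed to the compound at 500, 250 or 100 ppm in acetone/water with 0.01% wetting agent, on a cotton wool/sugar medium. Knockdown and mortality assessed, graded A (80-100%), B (50-79%) or C (<50%).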

Assay [6] has the same test system. Briefly: Contact test on houseflies - adults (MD), Cotton wool/sugar, mortality. As to conditions: 72 h, 500 ppm, contact, 3 days, read-out: MD grading of mortality. The gist of the method: as §1
The subject of assay [7] is Blattella germanica (cockroach nymphs). Briefly: Contact test on cockroach nymphs (BG/C), Plastic pot, mortality. As to conditions: 48 h, 500 ppm, contact, 2 days, read-out: BG/C grading of mortality. The gist of the method: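 Cockroach nymphs and/or their medium were treated with aqueous preparations at 500, 250 or 100 ppm (acetone solution diluted in water with 0.01% Lissapol NX wetting agent). Mortality or knockdown was assessed typically 1–3 days later and graded A (80–100%), B (50–79%) or C (<50%).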

The subject of assay [8] is Heliothis virescens (tobacco budworm - larvae). In words: Residual test on tobacco budworm larvae (HV), Cotton leaf, mortality. As to conditions: 48 h, read-out: HV grading of mortality. In a few lines:
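Product in acetone diluted with water containing 0.01% Lissapol NX, at 500, 250 or 100 ppm; pests and/or host medium (here cotton leaf) treated. Mortality scored one to three days later, graded A (80-100%), B (50-79%), C (<50%).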

In assay [9] the test system is Spodoptera exigua (lesser army worm - larvae). Briefly: Residual test on lesser army worm larvae (SP), Cotton leaf, mortality. To be noted: 48 h, 500 ppm, residual, 2 days, read-out: SP grading of mortality. The gist of the method: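 Product dissolved in acetone and diluted in water with 0.01% wetting agent to 500, 250 or 100 ppm; larvae and/or cotton leaf host treated. Mortality or knockdown scored one to three days later and graded A (80-100%), B (50-79%) or C (<50%).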

Assay [10] concerns Diabrotica balteata (rootworm larvae). Briefly: Residual test on rootworm larvae (DB), Filter paper/maize seed, mortality. To be noted: 48 h, 500 ppm, residual, 2 days, read-out: DB grading of mortality. The gist of the method: as §1

With `COCc1c(F)c(F)c(COC(=O)C(c2cnc(C(C)C)nc2)C(C)(C)C)c(OC)c1F` (racemic) [Compound 76, 3,5,6-trifluoro-2-methoxy-4-(methoxymethyl)benzyl (RS)-2-[2-(1-methylethyl)pyrimidin-5-yl]-3,3-dimethylbutanoate], the mortality at 500 ppm in [1] was 80 to 100%; in [2] it was < 50%; in assay [3] it was 80 to 100%; in [4], 80 to 100%; in assay [6], 50 to 79%; in [7], 50 to 79%. Besides, the mortality at 500 ppm was 80 to 100% in assay [8], 80 to 100% in assay [9] and < 50% in assay [10]. In [5], the pest or weed control at 500 ppm lay within 80 to 100%.
On to `CC(C)(C)SCc1c(F)c(F)c(COC(=O)C(c2cnc(C(C)(C)C)nc2)C(C)(C)C)c(F)c1F` (racemic) [Compound 175, 4-[(1,1-dimethylethyl)thio]methyl-2,3,5,6-tetrafluorobenzyl (RS)-2-[2-(1,1-dimethylethyl)pyrimidin-5-yl]-3,3dimethylbutanoate], for which the mortality at 500 ppm is 80 to 100% in assay [1]; < 50% in [2]; < 50% in assay [3]; < 50% in assay [4]; < 50% in assay [6]; < 50% in assay [7]. The mortality at 500 ppm in [8], in assay [9] and in [10] was < 50% in each case. Further, the pest or weed control at 500 ppm in [5] was < 50%.
Take `C=CCc1c(F)c(F)c(COC(=O)C(c2cnc(C(C)(C)C)nc2)C(C)(C)C)c(F)c1F` (racemic) [Compound 5, 4-(prop-2-en-1-yl)-2,3,5,6-tetrafluorobenzyl (RS)-2-[2-(1,1-dimethylethyl)pyrimidin-5-yl]-3,3-dimethylbutanoate]: the mortality at 500 ppm was 80 to 100% in [1]; < 50% in [2]; 80 to 100% in assay [3]; 50 to 79% in assay [4]; < 50% in assay [6]; < 50% in assay [7]. Moreover, the mortality at 500 ppm in assay [8] was 50 to 79%; in assay [9], 80 to 100%; in assay [10] it was < 50%. Moreover, the pest or weed control at 500 ppm in assay [5] lay in the range of 50 to 79%.
With `C#CCc1c(F)c(F)c(COC(=O)C(c2cnc(C(C)(C)C)nc2)C2CC2)c(F)c1F` (racemic) [Compound 91, 2,3,5,6-tetrafluoro-4-(prop-2-yn-1-yl)benzyl (RS)-2-[2-(1,1-dimethylethyl)pyrimidin-5-yl]-2-cyclopropylacetate], the mortality at 500 ppm in assay [1], in [2], in assay [3], in assay [4], in assay [6] and in [7] was 80 to 100% in each case. For the same molecule, the mortality at 500 ppm in assay [8], in assay [9] and in assay [10] was 80 to 100% throughout. In addition, the pest or weed control at 500 ppm in [5] lay in the range of 80 to 100%.
`CC(C)(C)c1ncc(C(C(=O)OCc2cccc(Oc3ccc(Cl)cc3)c2)C(C)(C)C)cn1` (racemic) [Compound 180, 3-(4-chlorophenoxy)benzyl (RS)-2-[2-(1,1-dimethylethyl)pyrimidin-5-yl]-3,3-dimethylbutanoate]: the mortality at 500 ppm in assay [1] is 80 to 100%; in [2], < 50%; in assay [3], 80 to 100%; in [4], 80 to 100%; in assay [6], 80 to 100%; in [7] it was < 50%. In addition, the mortality at 500 ppm was 80 to 100% in [8], 80 to 100% in assay [9] and < 50% in [10]. Further, the pest or weed control at 500 ppm in assay [5] was in the range of 80 to 100%.
In the case of `CCOCc1c(F)c(F)c(COC(=O)C(c2cnc(C(C)(C)C)nc2)C(C)(C)C)c(OCC)c1F` (racemic) [Compound 188, 2,3,5-trifluoro-6-ethoxy-4-(ethoxymethyl)benzyl (RS)-2-[2-(1,1-dimethylethyl)pyrimidin-5-yl]-3,3-dimethylbutanoate], the mortality at 500 ppm in assay [1] is 80 to 100%; in [2] it was < 50%; in assay [3], 80 to 100%; in assay [4], 50 to 79%; in assay [6] it was < 50%; in assay [7] it was < 50%. Also, the mortality at 500 ppm is 50 to 79% in assay [8], 80 to 100% in assay [9] and < 50% in assay [10]. Further, the pest or weed control at 500 ppm in assay [5] was < 50%.
Regarding `COCc1c(F)c(F)c(COC(=O)C(c2cnc(-c3ccccc3)nc2)C(C)(C)C)c(F)c1F` (racemic) [Compound 161, 2,3,5,6-tetrafluoro-4-(methoxymethyl)benzyl (RS)-2-(2-phenylpyrimidin-5-yl)-3,3-dimethylbutanoate], the mortality at 500 ppm in [1] fell in the range of 80 to 100%; in [2], 80 to 100%; in [3], 80 to 100%; in [4], 80 to 100%; in assay [6] it was 80 to 100%; in assay [7] it was 50 to 79%. Moreover, the mortality at 500 ppm in [8] was < 50%; in [9], 80 to 100%; in [10], 50 to 79%. The pest or weed control at 500 ppm in assay [5] fell in the range of 80 to 100%.
`C[C@@H](OC(=O)[C@@H](c1cnc(C(C)(C)C)nc1)C(C)(C)C)c1cccc(Oc2ccccc2)n1` (racemic) [Compound 11, (RS)-1-(6-phenoxypyrid-2-yl)ethyl (RS)-2-[2-(1,1-dimethylethyl)pyrimidin-5-yl]-3,3-dimethylbutanoate]: the mortality at 500 ppm was 80 to 100% in assay [1]; 80 to 100% in assay [2]; 80 to 100% in [3]; 80 to 100% in assay [4]; 80 to 100% in [6]; < 50% in [7]. Moreover, the mortality at 500 ppm in assay [8], in [9] and in assay [10] was 80 to 100% each time. In addition, in assay [5], the pest or weed control at 500 ppm was in the range of 80 to 100%.
`CC(C)(C)c1ncc(C(C(=O)OCc2c(F)c(F)c(COc3ccccc3)c(F)c2F)C(C)(C)C)cn1` (racemic) [Compound 192, 2,3,5,6-tetrafluoro-4-(phenoxymethyl)benzyl (RS)-2-[2-(1,1-dimethylethyl)pyrimidin-5-yl]-3,3-dimethylbutanoate]: the mortality at 500 ppm in [1] is 80 to 100%; in assay [2], < 50%; in [3], 50 to 79%; in [4], < 50%; in [6] it was < 50%; in [7], < 50%. In addition, the mortality at 500 ppm in assay [8] is < 50%; in assay [9], 80 to 100%; in assay [10], < 50%. For the same molecule, the pest or weed control at 500 ppm in assay [5] was < 50%.
For the molecule `C=C(C)C(C(=O)OCc1c(F)c(F)c(COC)c(F)c1F)c1cnc(C(C)(C)C)nc1` (racemic) [Compound 202, 2,3,5,6-tetrafluoro-4-(methoxymethyl)benzyl (RS)-2-[2-(1,1-dimethylethyl)pyrimidin-5-yl]-3-methylbut-3-enoate], the mortality at 500 ppm was 80 to 100% in assay [1]; < 50% in [2]; 80 to 100% in assay [3]; 80 to 100% in assay [4]; < 50% in [6]; < 50% in [7]. Besides, the mortality at 500 ppm in assay [8] was 50 to 79%; in [9], 80 to 100%; in [10], < 50%. Further, the pest or weed control at 500 ppm in [5] lay within 80 to 100%.
